Source: PubChem BioAssay (NCI)
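Where inhibition never reached the appropriate level, the endpoint shown equals the highest concentration tested. Otherwise, values were interpolated linearly from a five-concentration, 48-hour dose response in 96-well plates. GI50: concentration for 50% inhibition of growth. TGI: total growth inhibition.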

What was measured:
Experiment in all cases: inhibition of tumour cell growth, NCI panel, 48 h
HT29 colon = system: HT29 colon
SK-MEL-28 melanoma = system: SK-MEL-28 melanoma
SK-OV-3 ovarian = system: SK-OV-3 ovarian
SF-268 CNS = system: SF-268 CNS
SNB-19 CNS = system: SNB-19 CNS
UACC-257 melanoma = system: UACC-257 melanoma
OVCAR-4 ovarian = system: OVCAR-4 ovarian
TK-10 renal = system: TK-10 renal
IGROV1 ovarian = system: IGROV1 ovarian
HCT-116 colon = system: HCT-116 colon

Row | SMILES | GI50 (HT29 colon) [µM] | TGI (HT29 colon) [µM] | GI50 (SK-MEL-28 melanoma) [µM] | TGI (SK-MEL-28 melanoma) [µM] | GI50 (SK-OV-3 ovarian) [µM] | TGI (SK-OV-3 ovarian) [µM] | GI50 (SF-268 CNS) [µM] | TGI (SF-268 CNS) [µM] | GI50 (SNB-19 CNS) [µM] | TGI (SNB-19 CNS) [µM] | GI50 (UACC-257 melanoma) [µM] | TGI (UACC-257 melanoma) [µM] | GI50 (OVCAR-4 ovarian) [µM] | TGI (OVCAR-4 ovarian) [µM] | GI50 (TK-10 renal) [µM] | TGI (TK-10 renal) [µM] | GI50 (IGROV1 ovarian) [µM] | TGI (IGROV1 ovarian) [µM] | GI50 (HCT-116 colon) [µM] | TGI (HCT-116 colon) [µM]
1 | CNS(=O)(=O)OCC1OC(n2cnc3cncnc32)C(O)C1O (stereo not given) | > 100 | > 100 | > 100 | > 100 | > 100 | > 100 | > 100 | > 100 | > 100 | > 100 | > 100 | > 100 | > 100 | > 100 | > 100 | > 100 | > 100 | > 100 | > 100 | > 100
2 | Cc1cc(Cl)nc2ccc(Cc3ccc4nc(Cl)cc(C)c4c3)cc12 |  | > 100 |  | > 100 |  | 47.1 |  | > 100 |  | > 100 |  | > 100 |  | > 100 |  | 59.7 |  | > 100 |  | > 100
3 | NC(=O)c1cccc2c(N[C@H](CN3CCC3)c3ccc(Cl)c(C(F)(F)F)c3)ncnc12 | 0.981 | 12.1 | 1.18 | 4.13 | 0.493 | 4.3 | 1.09 | 12.9 | 1.19 | 11.4 | 1.22 | 5.27 | 3.26 | 16.6 | 0.156 | 3.34 | 0.0989 | 2.63 | 2.32 | 11.7
4 | Oc1c(C(Nc2ccccn2)c2cccc(Oc3ccccc3)c2)ccc2cccnc12 (stereo not given) | 1.63 | 30.1 | 0.63 | 17.8 | 0.836 | 15.6 | 0.518 | 14.3 | 0.366 | 14.7 | 1.32 | 15 | 0.361 | 13.4 | 0.672 | 14.5 | 0.538 | 21.5 | 0.449 | 16.6
5 | Oc1cc(N2CC2)c(O)cc1N1CC1 | 0.384 | 6.79 | 1.71 | 4.2 | 1.54 | 8.77 | 0.585 | 7.97 | 1.78 | 13.5 | 0.851 | 2.98 | 2.28 | 8.9 | 1.27 | 9.35 | 0.794 | 3.6 | 0.615 | 10.8
6 | CNC(=O)c1nn(C)c2c1C(C)(C)Cc1cnc(Nc3cccc(N4CCN(C)CC4)c3)nc1-2 | 0.524 | > 35 | 1.32 | 13.1 | 0.21 | 7.44 | 0.931 | 9.36 | 0.322 | 28.7 | 0.386 | 7.09 | 0.409 | 44.3 | 0.271 | 24.4 | 0.166 | 11.6 | 0.176 | 31.2
